Assay results taken from US10105357B2, “Indication of antibiotic drugs for preparation of cancer inhibition pharmaceutical composition” (LAUNX BIOMEDICAL CO., LTD., priority 2014, dated 2018).
Read-outs that look alike come from different tables or passages of the source.

Tests used:
[1] = system: HI650 (Lung Adenocarcinoma); assay: Cell viability analysis, lung cancer HI650; format: cell-based, human
[2] = system: LoVo (Colorectal Adenocarcinoma); assay: Cell viability analysis, colon cancer LoVo; format: cell-based, human
AsPC-1 = assay: Cell viability analysis, pancreatic cancer AsPC-1; format: cell-based, human
[3] = system: TSGH-8301 (Urinary Bladder Carcinoma); assay: Cell viability analysis, bladder cancer TSGH-8301; format: cell-based, human
[4] = system: A375 (Amelanotic Melanoma); assay: Cell viability analysis, skin cancer A375; format: cell-based, human
U-2OS = assay: Cell viability analysis, osteosarcoma U-2OS; format: cell-based, human
[5] = system: PC3 (p53−) (Prostate Adenocarcinoma); assay: Cell viability analysis, prostate cancer PC3; format: cell-based, human
[6] = system: SAS (Tongue squamous cell carcinoma); assay: Cell viability analysis, tongue cancer SAS; format: cell-based, human
BxPC-3 = assay: Cell viability analysis, pancreatic cancer BxPC-3; format: cell-based, human; details: BxPC-3; repeated experiment
[7] = system: HepG2 (Hepatocellular Carcinoma); assay: Cell viability analysis, hepatic cancer HepG2; format: cell-based, human
[8] = system: AGS (Gastric Adenocarcinoma); assay: Cell viability analysis, gastric cancer AGS; format: cell-based, human
[9] = system: A549 (Lung Adenocarcinoma); assay: Cell viability analysis, lung cancer A549; format: cell-based, human
[10] = system: HeLa (Cervix Adenocarcinoma); assay: Cell viability analysis, cervical cancer HeLa; format: cell-based, human
[11] = system: BCC (basal cell carcinoma); assay: Cell viability analysis, skin cancer BCC; format: cell-based, human; details: BCC; repeated experiment
[12] = system: MKN-45 (Gastric Adenocarcinoma); assay: Cell viability analysis, gastric cancer MKN-45; format: cell-based, human
[13] = system: MCF7 (Mammary Gland, Adenocarcinoma); assay: Cell viability analysis, breast cancer MCF7; format: cell-based, human
[14] = system: HCT116 (p53+) (Colorectal Carcinoma)
cancer cell lines = assay: Cell viability analysis (WST-1) on cancer cell lines; format: cell-based, human; details: drug 10 μM, 72 hours, WST-1; Table 3
[15] = system: HL-60 (Acute Promyelocytic Leukemia); assay: Cell viability analysis, leukemia HL-60; format: cell-based, human
[16] = system: MDA-MB-231 (Mammary Gland, Adenocarcinoma); assay: Cell viability analysis, breast cancer MDA-MB-231; format: cell-based, human
[17] = system: C-33A (Cervical carcinoma); assay: Cell viability analysis, cervical cancer C-33A; format: cell-based, human
NIH: OVCAR-3 = assay: Cell viability analysis, ovarian cancer NIH: OVCAR-3; format: cell-based, human
[18] = system: Hep3B (hepatocellular carcinoma); assay: Cell viability analysis, hepatic cancer Hep3B; format: cell-based, human
[19] = system: 786-O (Renal adenocarcinoma); assay: Cell viability analysis, renal cancer 786-O; format: cell-based, human
[20] = drug 10 μM, 72 hours, WST-1, OD450 nm

## CC1(C)S[C@@H]2[C@H](NC(=O)[C@H](N)c3ccc(O)cc3)C(=O)N2[C@H]1C(=O)[O-].[Na+] [Amoxicillin sodium (Amox), Amoxicillin sodium]
[1]; H1650, repeated experiment
  The results of antibiotic drug inhibiting cancer cell lines (cell viability analysis), H1650: 87.81
[1]; [20]
  cell viability (survival rate), H1650: 43.3
[2]; [20]
  cell viability (survival rate), LoVo: 69.1
AsPC-1; AsPC-1, repeated experiment
  The results of antibiotic drug inhibiting cancer cell lines (cell viability analysis), AsPC-1: 88.13
[3]; TSGH-8301, repeated experiment
  The results of antibiotic drug inhibiting cancer cell lines (cell viability analysis), TSGH-8301: 129.6
[3]; [20]
  cell viability (survival rate), TSGH: 45.4
[4]; A375, repeated experiment
  The results of antibiotic drug inhibiting cancer cell lines (cell viability analysis), A375: 115.9
[4]; [20]
  cell viability (survival rate), A375: 78.5
U-2OS; U2OS, repeated experiment
  The results of antibiotic drug inhibiting cancer cell lines (cell viability analysis), U2OS: 65.21
[5]; PC-3, repeated experiment
  The results of antibiotic drug inhibiting cancer cell lines (cell viability analysis), PC-3: 127.2
[5]; [20]
  cell viability (survival rate), PC3: 74.8
[6]; SAS, repeated experiment
  The results of antibiotic drug inhibiting cancer cell lines (cell viability analysis), SAS: 66.94
BxPC-3
  The results of antibiotic drug inhibiting cancer cell lines (cell viability analysis), BxPC-3: 71.08
[7]; HepG2, repeated experiment
  The results of antibiotic drug inhibiting cancer cell lines (cell viability analysis), HepG2: 124.5
[7]; [20]
  cell viability (survival rate), HepG2: 80.8
[8]; AGS, repeated experiment
  The results of antibiotic drug inhibiting cancer cell lines (cell viability analysis), AGS: 128.2
[8]; [20]
  cell viability (survival rate), AGS: 51.2
[9]; [20]
  cell viability (survival rate), A549: 60.6
[10]; HeLa, repeated experiment
  The results of antibiotic drug inhibiting cancer cell lines (cell viability analysis), HeLa: 112.6
[10]; [20]
  cell viability (survival rate), HeLa: 81.0
[11]
  The results of antibiotic drug inhibiting cancer cell lines (cell viability analysis), BCC: 115.1
[12]; MKN-45, repeated experiment
  The results of antibiotic drug inhibiting cancer cell lines (cell viability analysis), MKN-45: 110.7
[12]; [20]
  cell viability (survival rate), MKN-45: 63.2
[13]; [20]
  cell viability (survival rate), MCF7: 60.4
[14]
  viability: 112%
Cancer cell lines
  inhibition effect on different cancer cell lines: significant inhibition effect

## CCn1cc(C(=O)O)c(=O)c2cc(F)c(N3CCNC(C)C3)c(F)c21.Cl (centres unmarked) [Lomefloxacin HCl (Maxaquin)]
[1]
  cell viability (survival rate), H1650: 56.6
[2]
  cell viability (survival rate), LoVo: 88.9
[15]
  cell viability (survival rate), HL-60: 96.5
[3]
  cell viability (survival rate), TSGH: 61.2
[4]
  cell viability (survival rate), A375: 87.7
[5]
  cell viability (survival rate), PC3: 63.3
[7]
  cell viability (survival rate), HepG2: 90.5
[8]
  cell viability (survival rate), AGS: 77.5
[9]
  cell viability (survival rate), A549: 70.7
[10]
  cell viability (survival rate), HeLa: 135.0
[12]
  cell viability (survival rate), MKN-45: 92.7
[13]
  cell viability (survival rate), MCF7: 83.5
[14]
  cell viability (survival rate), HCT116: 113.4

## O=C([O-])C(O)[C@H](O)[C@@H](O)[C@H](O)[C@H](O)CO.O=C([O-])C(O)[C@H](O)[C@@H](O)[C@H](O)[C@H](O)CO.[Ca+2] (some centres unmarked) [Calcium Gluceptate]
[1]; [20]
  cell viability (survival rate), H1650: 54.25
[2]; [20]
  cell viability (survival rate), LoVo: 55.29
[15]; [20]
  cell viability (survival rate), HL-60: 113.4525
[3]; [20]
  cell viability (survival rate), TSGH: 33.81
[4]; [20]
  cell viability (survival rate), A375: 36.97
[5]; [20]
  cell viability (survival rate), PC3: 37.91
[7]; [20]
  cell viability (survival rate), HepG2: 76.88
[8]; [20]
  cell viability (survival rate), AGS: 79.67
[9]; [20]
  cell viability (survival rate), A549: 24.91
[10]; [20]
  cell viability (survival rate), HeLa: 43.93
[12]; [20]
  cell viability (survival rate), MKN-45: 74.23
[13]; [20]
  cell viability (survival rate), MCF7: 34.24
[14]; drug 10 μM, 72 hours, WST-1, OD450 nm, head HCT116 / HCT116(WT)
  cell viability (survival rate), HCT116: 74.09

## N#C[C@@H]1C[C@@H]2C[C@H]2N1C(=O)[C@@H](N)C12CC3CC(CC(O)(C3)C1)C2 [Saxagliptin (BMS-477118, Onglyza)]
[1]
  The results of antibiotic drug inhibiting cancer cell lines (cell viability analysis), H1650: 101.5
[16]
  The results of antibiotic drug inhibiting cancer cell lines (cell viability analysis), MDA-MB231: 102
[2]
  The results of antibiotic drug inhibiting cancer cell lines (cell viability analysis), LoVo: 82.99
AsPC-1
  The results of antibiotic drug inhibiting cancer cell lines (cell viability analysis), AsPC-1: 75.97
[3]
  The results of antibiotic drug inhibiting cancer cell lines (cell viability analysis), TSGH-8301: 119.6
[4]
  The results of antibiotic drug inhibiting cancer cell lines (cell viability analysis), A375: 111.4
[17]
  The results of antibiotic drug inhibiting cancer cell lines (cell viability analysis), C-33A: 104.4
U-2OS
  The results of antibiotic drug inhibiting cancer cell lines (cell viability analysis), U2OS: 62.9
[5]
  The results of antibiotic drug inhibiting cancer cell lines (cell viability analysis), PC-3: 112
[6]
  The results of antibiotic drug inhibiting cancer cell lines (cell viability analysis), SAS: 62.71
NIH: OVCAR-3
  The results of antibiotic drug inhibiting cancer cell lines (cell viability analysis), NIH-OVCAR-3: 114.2
[18]
  The results of antibiotic drug inhibiting cancer cell lines (cell viability analysis), Hep3B: 122.9
[7]
  The results of antibiotic drug inhibiting cancer cell lines (cell viability analysis), HepG2: 118
[19]
  The results of antibiotic drug inhibiting cancer cell lines (cell viability analysis), 786-O: 98.33
[8]
  The results of antibiotic drug inhibiting cancer cell lines (cell viability analysis), AGS: 121.3
[9]
  The results of antibiotic drug inhibiting cancer cell lines (cell viability analysis), A549: 98.68
[10]
  The results of antibiotic drug inhibiting cancer cell lines (cell viability analysis), HeLa: 114.7
[12]
  The results of antibiotic drug inhibiting cancer cell lines (cell viability analysis), MKN-45: 117.7
[14]
  viability: 107%
